Measurements from patent US8323708B2, “Poultry meat and eggs comprising beneficial fatty acids” (Monsanto Technology LLC, priority 2009, dated 2012).

Tests used:
[1] = 21 day broiler study: long chain fatty acid composition of skinless breast meat; assay type: in vivo, broiler chickens; settings: day 21-42
Protocol: (§1) A 21 day study was conducted to determine whether broiler chickens fed a diet containing SDA could produce meat with elevated levels of omega-3 fatty acids including EPA and DHA.
(§2) Fifty pens of four birds per pen were used. There were 25 pens of males and 25 pens of females. Five pens of males and five pens of females were each fed one of five treatment diets from day 21 to 42 days of age. Prior to day 21 all birds were fed a standard 22% protein starter diet formulated to meet NRC (1994) nutrient requirements (shown in Table 16 as “S” diet). The feed prepared was feed as a crumble.
(§3) The test diets were prepared and fed in mash form. All broilers had ad libitum access to feed and water for the duration of the 21 day study. The composition of the diets (Table 4) and premixes (Table 5) are provided below.
(§4) To help prevent oxidation of the fatty acids, 0.05% ethoxyquin (Rendox) was added to each premix. Premixes were manufactured within 3 days of arrival of ethyl esters. To limit oxidation associated with storage, diets were manufactured once and stored in a refrigerated cooler at 4° C. during the duration of the study.
(§5) For male pens only, four out of the five pens were randomly selected. Two birds from each of these pens were randomly selected (eights birds per treatment). The right and left thigh and right and left breast from these 40 birds were bagged and labeled and frozen. The right breast and thigh samples were analyzed for shelf life stability and the left skinless breast and left boneless, skinless thigh from these same birds were analyzed for fatty acid composition.

[2] = 21 day broiler study: long chain fatty acid composition of thigh meat; assay type: in vivo, broiler chickens; settings: day 21-42; for ALA (C18:3n-3) / DHA (C22:6n-3) / DPA (C22:5 n-3) / EPA (C20:5n-3) / Omega 6/Omega 3 ratio / SDA (C18:4n-3) / Total omega 3's: boneless skinless thigh meat
Protocol: as §1, §2, §3, §4, §5

[3] = 42 day broiler study: fatty acid composition of breast meat; assay type: in vivo, broiler chickens (Ross x Ross 308)
Protocol: (§6) A 42 day study was conducted to determine whether broiler chickens fed a diet containing SDA could produce meat with elevated levels of omega-3 fatty acids as compared to chickens fed diets containing DHA and fish oil.
(§7) Fifty six pens of 25 male birds (Ross×Ross 308) per pen were used. Day old birds were obtained and immediately placed in floor pens containing (used) pine wood shavings, hanging tube feeders and nipple-waterers or plassons. Eight pens were each fed one of seven treatments for 42 days. The experiment was divided into four growth phases (0-7 days, 7-21 days, 21-35 days, and 35-42 days). The experimental diets were crumbled for the first two phases (0-21 days) and pelleted thereafter.
(§8) Diets consisted of 93% base mix (Table 10) plus 7% Test Oil Mix (Table 11). The diets supplied 3008, 3083, 3183 and 3208 kcal/kg of metabolizable energy for the pre-starter, starter, grower and finisher phases, respectively.
(§9) A randomized block design was used. Treatments were randomly assigned to pens such that each of the seven treatments was replicated 8 times (8 pens with each pen containing 25 birds).
(§10) On day 42, following a 10-hour period of feed withdrawal, 8 birds per pen (64 birds/treatment; 7 treatments; 448 birds total) were randomly selected and processed using commercial processing procedures. Carcasses were cut-up and de-boned at 4 hours postmortem. Carcass and parts yields were calculated and meat samples (breast and thigh) were collected for meat quality, fatty acid analysis, and sensory evaluation.

[4] = 42 day broiler study: fatty acid composition of thigh meat and attached skin; assay type: in vivo, broiler chickens (Ross x Ross 308)
Protocol: as §6, §7, §8, §9, §10

[5] = Laying hen study: long chain fatty acid composition of eggs; assay type: in vivo, laying hens; settings: total egg
Protocol: A study was conducted to determine whether laying hens fed a diet enriched in stearidonic acid could produce eggs with elevated levels of beneficial omega-3 fatty acids including EPA and DHA. Mature laying hens […] were randomly allotted to seven dietary treatments (16 hens/treatment) and were fed diets containing the following levels of n-3 fatty acids as described in Table 28 for four weeks. Sixteen birds were given each treatment. Four birds were randomly selected out of the 16 per treatment to obtain eggs during week 4 for fatty acid composition. […] The laying hens had ad libitum access to feed and water. The composition of the diets (Table 29) and premixes (Table 30) are provided below. To help prevent oxidation of the fatty acids, 0.05% ethoxyquin (Rendox) was added to each premix. Premixes were manufactured within 3 days of arrival of ethyl esters. To limit the oxidation associated with storage, diets were manufactured once and stored in a refrigerated cooler at 4° C. during the duration of the study. Eggs collected during […] (days 22-28) were maintained under refrigerated conditions until all eggs for that week were collected. Eggs were sorted by hen and treatment. Two eggs per hen from 4 hens per treatment were taken. The two eggs were weighed individually, cracked and the shell weighed. The difference between fresh egg and shell represented liquid egg weight and served as the basis for further calculations. The liquid fraction from each of the two eggs per hen were combined in a sample cup and homogenized. Samples were analyzed for fatty acids by gas chromatography.

[6] = 0.27% in feed (as ethyl esters), day 0-42
[7] = thigh meat and attached skin, 0.27% in feed (as ethyl esters), day 0-42

## CC/C=C\C/C=C\C/C=C\C/C=C\C/C=C\C/C=C\CCC(=O)OCC [DHA Ethyl Ester]
[1]; ethyl ester 0.163% of diet
  ALA (C18:3n-3): 10 mg/100 g
  DHA (C22:6n-3): 55.0 mg/100 g
  DPA (C22:5 n-3): 10 mg/100 g
  EPA (C20:5n-3): 10 mg/100 g
  Omega 6/Omega 3 ratio: 2.9
  Total omega 3's: 85.0 mg/100 g
[1]; ethyl ester 0.326% of diet
  ALA (C18:3n-3): 10 mg/100 g
  DHA (C22:6n-3): 80 mg/100 g
  DPA (C22:5 n-3): 10 mg/100 g
  EPA (C20:5n-3): 10 mg/100 g
  Omega 6/Omega 3 ratio: 1.9
  Total omega 3's: 110 mg/100 g
[2]; ethyl ester 0.163% of diet
  ALA (C18:3n-3): 70 mg/100 g
  DHA (C22:6n-3): 67.5 mg/100 g
  DPA (C22:5 n-3): 15 mg/100 g
  EPA (C20:5n-3): 10 mg/100 g
  Omega 6/Omega 3 ratio: 8.4
  SDA (C18:4n-3): 10 mg/100 g
  Total omega 3's: 172.5 mg/100 g
[2]; ethyl ester 0.326% of diet
  ALA (C18:3n-3): 75 mg/100 g
  DHA (C22:6n-3): 125 mg/100 g
  DPA (C22:5 n-3): 20 mg/100 g
  EPA (C20:5n-3): 27.5 mg/100 g
  Omega 6/Omega 3 ratio: 5.7
  SDA (C18:4n-3): 10 mg/100 g
  Total omega 3's: 257.5 mg/100 g
[2]; supplemented birds
  total omega 3 fatty acids in thigh meat relative to breast meat: 2 times
[3]; [6]
  ARA C20:4n-6: 3.01 % of fatty acids
  C16:0: 21.82 % of fatty acids
  C16:1: 3.09 % of fatty acids
  C18:0: 8.76 % of fatty acids
  C18:1: 30.41 % of fatty acids
  C18:2: 22.94 % of fatty acids
  C22:4n-6: 0.53 % of fatty acids
  DHA (C22:6n-3): 2.78 % of fatty acids
  DPA (C22:5 n-3): 0.48 % of fatty acids
  EPA (C20:5n-3): 0.16 % of fatty acids
  SDA (C18:4n-3): 0.59 % of fatty acids
  Total C18:3: 0.66 % of fatty acids
[3]; % of fatty acids, 0.27% in feed
  Total SDA, EPA, DPA and DHA concentrations: 4.00%
[4]; [7]
  ARA C20:4n-6: 0.81 % of fatty acids
  C16:0: 21.71 % of fatty acids
  C16:1: 4.48 % of fatty acids
  C18:0: 6.31 % of fatty acids
  C18:1: 35.94 % of fatty acids
  C18:2: 25.99 % of fatty acids
  C20:4n-3: 0.03 % of fatty acids
  C22:4n-6: 0.16 % of fatty acids
  DHA (C22:6n-3): 0.73 % of fatty acids
  DPA (C22:5 n-3): 0.14 % of fatty acids
  EPA (C20:5n-3): 0.11 % of fatty acids
  SDA (C18:4n-3): 0.24 % of fatty acids
  Total C18:3: 1.03 % of fatty acids
[4]; thigh meat, 0.27% in feed
  Total SDA, EPA, DPA and DHA concentrations: 1.2%
[5]; 0.163% of diet
  ALA (C18:3n-3): 40 mg/100 g
  DHA (C22:6n-3): 177.5 mg/100 g
  DPA (C22:5 n-3): 10 mg/100 g
  Omega 6/Omega 3 ratio: 5.7
  Total omega 3's: 227.5 mg/100 g
[5]; 0.326% of diet
  ALA (C18:3n-3): 40 mg/100 g
  DHA (C22:6n-3): 247.5 mg/100 g
  DPA (C22:5 n-3): 10 mg/100 g
  EPA (C20:5n-3): 10 mg/100 g
  Omega 6/Omega 3 ratio: 3.8
  Total omega 3's: 307.5 mg/100 g

## CC/C=C\C/C=C\C/C=C\C/C=C\CCCCC(=O)OCC [SDA Ethyl Ester]
[1]; ethyl ester 0.416% of diet
  ALA (C18:3n-3): 10 mg/100 g
  DHA (C22:6n-3): 10 mg/100 g
  DPA (C22:5 n-3): 22.5 mg/100 g
  EPA (C20:5n-3): 20 mg/100 g
  Omega 6/Omega 3 ratio: 2.9
  SDA (C18:4n-3): 22.5 mg/100 g
  Total omega 3's: 85 mg/100 g
[1]; ethyl ester 0.832% of diet
  ALA (C18:3n-3): 10 mg/100 g
  DHA (C22:6n-3): 10 mg/100 g
  DPA (C22:5 n-3): 30 mg/100 g
  EPA (C20:5n-3): 27.5 mg/100 g
  Omega 6/Omega 3 ratio: 2.0
  SDA (C18:4n-3): 40 mg/100 g
  Total omega 3's: 117.5 mg/100 g
[2]; ethyl ester 0.416% of diet
  ALA (C18:3n-3): 82.5 mg/100 g
  DHA (C22:6n-3): 20 mg/100 g
  DPA (C22:5 n-3): 37.5 mg/100 g
  EPA (C20:5n-3): 30 mg/100 g
  Omega 6/Omega 3 ratio: 4.4
  SDA (C18:4n-3): 187.5 mg/100 g
  Total omega 3's: 362.5 mg/100 g
[2]; ethyl ester 0.832% of diet
  ALA (C18:3n-3): 86.7 mg/100 g
  DHA (C22:6n-3): 20 mg/100 g
  DPA (C22:5 n-3): 50 mg/100 g
  EPA (C20:5n-3): 50 mg/100 g
  Omega 6/Omega 3 ratio: 2.7
  SDA (C18:4n-3): 386.7 mg/100 g
  Total omega 3's: 593.3 mg/100 g
[5]; 0.416% of diet
  ALA (C18:3n-3): 42.5 mg/100 g
  DHA (C22:6n-3): 150 mg/100 g
  DPA (C22:5 n-3): 35 mg/100 g
  EPA (C20:5n-3): 10 mg/100 g
  Omega 6/Omega 3 ratio: 5.0
  SDA (C18:4n-3): 10 mg/100 g
  Total omega 3's: 247.5 mg/100 g
[5]; 0.832% of diet
  ALA (C18:3n-3): 55 mg/100 g
  DHA (C22:6n-3): 182.5 mg/100 g
  DPA (C22:5 n-3): 60 mg/100 g
  EPA (C20:5n-3): 22.5 mg/100 g
  Omega 6/Omega 3 ratio: 3.7
  SDA (C18:4n-3): 25 mg/100 g
  Total omega 3's: 360 mg/100 g
